Measurements taken from patent US5212072A, “Polypeptides complementary to peptides or proteins having an amino acid sequence or nucleotide coding sequence at least partially known and methods of design therefor” (Board of Regents, The University of Texas System, priority 1991, dated 1993).
Where no end group is shown, it is not given here.

What was measured:
bovine gamma-endorphin = target: T1, bovine gamma-endorphin (Bos taurus, UniProt P01190); assay: ELISA binding of gamma-endorphin to coated wells; conditions: gamma-odne 40 ug/well vs insulin or BSA; absorbance 405 nm; FIG. 7
T1 construct: purchased Boehringer Mannheim (Indianapolis, Ind.); host or cells: chemical synthesis
Experimental: Synthetic bovine gamma-endorphin was obtained from Boehringer Mannheim (Indianapolis, Ind.) and rabbit antibody for synthetic gamma-endo was obtained from Accurate Biochemicals (Westbury, N.Y.).
The wells of a 96-well round-bottomed microtiter plate were coated (by the procedure described in Example 1B) with gamma-odne (40 ug/well), insulin (20U/well) or bovine serum albumin (BSA,200 ug/well . Varying concentrations of gamma-endorphin (as shown on the abscissa in FIG. 7) were incubated in the coated wells for 1 hr, after which the plates were thrice washed with PBS-Tween buffer. The wells were then treated with rabbit antibody for gamma-endorphin, washed, and then treated with goat antibody against rabbit immunoglobulin the goat antibody being conjugated to alkaline phosphatase. After washing away unbound goat antibody conjugate, the bound alkaline phosphatase activity was measured with p-nitrophenylphosphate as earlier described. The results of the above manipulations are shown in FIG. 7 where the extent of absorbance at 405 nm reflects the degree of gamma-endorphin binding to wells coated with gamma-odne, insulin or BSA. […] The shaded area in FIG. 7 represents the extent of gamma-endorphin binding in the presence of soluble excess of gamma-odne. Thus it is shown that a second pair of complementary peptides interacts in a manner showing affinity and apparent congruence.

[1] = test system: opiate receptors on NG108-15 cells; assay: Inhibition of 125I-beta-endorphin binding to NG108-15 cells; conditions: 125I-beta-endorphin 10^-11 M
Excerpt: NG108-15 cells are known to contain receptors for beta-endorphin called opiate receptors. In addition to beta-endorphin, gamma-endorphin and several analogs of beta-endorphin bind to these opiate receptors. The peptide, gamma-ODNE, complementary to gamma-endorphin described in Example II was examined for its ability to inhibit the binding of ^125 I-beta-endorphin to opiate receptors on NG108-15 cells. Gamma-endorphin is a fragment of the larger peptide beta-endorphin.
Seventy percent of the total binding was specific by conventional criteria.
For this experiment, ^1251 -beta-endorphin was preincubated 30 minutes with various amounts of the complementary peptide, gamma-ODNE, before a 30 minute (37° C.) incubation with NG108-15 cells in microtiter wells. After the incubation, cells were washed 3 times and cell associated radioactivity wad determined with a Packard Multi-Prias gamma counter.

[2] = target: T2, mouse adrenal tumor cell ACTH receptor (Mus musculus, UniProt Q64326); assay: Glucocorticoid hormone production by mouse adrenal tumor (Y-1) cells; assay type: cell-based; conditions: ACTH 10 microunits/well, 18 hrs
T2 construct: Duplicate cultures of mouse adrenal tumor (Y-1) cells in microtiter plates; endogenous in cells; host or cells: mouse adrenal tumor (Y-1) cells
Experimental: An induction of glucocorticoid hormone production by ACTH and anti-HTCA was found with cultured mammalian cells. Duplicate cultures of mouse adrenal tumor (Y-1) cells in microtiter plates were treated with culture media, ACTH (10 microunits/well) or various dilutions of the anti-HTCA.
^a Duplicate cultures of mouse adrenal (Y1) cells in microtiter plate
were treated with culture media, ACTH (10 microunits/well) or the
indicated dilutions of antibody to HTCA. After 18 hrs incubation at
37° in 4% CO2, replicate cultures were pooled and assayed for
glucocorticoid hormone production by a radioimmunoassay (RIA) for […]

[3] = test system: mouse adrenal tumor (Y-1) cells; assay: Binding of anti-HTCA to affixed mouse adrenal tumor (Y-1) cells; conditions: absorbency at 405 nM; FIG. 5
Experimental: Mouse adrenal tumor (Y-1) cells were affixed by glutaraldehyde in flat bottom wells of a microtiter plate. The affixed cells were then treated with rabbit anti-KLH or rabbit anti-HTCA alone or in the presence of several levels of ACTH. After washing, the microtiter wells were treated with goat antibody to rabbit immunoglobulin the goat antibody being coupled to the enzyme alkaline phosphatase. After washing away unbound antibody-phosphatase complex, p-nitrophenyl phosphate was added and the enzyme dependent development of absorbency at 405 nM was monitored. […] ACTH and anti-HTCA appeared competitive for the same binding site on the mouse adrenal tumor (Y-1) cells. Rabbit anti KLH had no effect (shaded region)

HTCA = assay: Solid phase radiobinding assay for serum ACTH on HTCA-coated wells; assay type: binding; conditions: for Log10 Dilution at 50% inhibition: graphic interpolation
Experimental: Complementary peptide (HTCA) was dissolved in phosphate buffered saline (PBS) at 1 mg/ml and 200 ul aliquots were placed in wells of a 96 well polyvinyl assay plate (Microtest III, Falcon Cat. #3911). HTCA was allowed to coat the wells overnight at 4° C. The coating solution was removed and the wells were washed three times with PBS. Radiolabeled ACTH (^125 I-ACTH, New England Nuclear NEX-65) was diluted into PBS containing 0.0005% TWEEN-20 so as to deliver 50 pg (or about 30,000 cpm) in a 20 ul volume.
Serum samples were prepared in a 96 well tissue culture plate by serial dilution of serum into PBS/TWEEN 20 to give a final volume of 180 ul/well. The serum samples were then transferred to the HTCA coated a ssay plate and allowed to incubate. Finally, 20 ul of ^125 I-ACTH solution was added, incubated, and the total sample of 200 ul was removed. After washing three times with PBS, the wells were cut from the plate and counted in a gamma counter.
Serum samples used in this study contained either 50 pg/ml or 500 pg/ml of ACTH added to fetal calf serum (FCS).

female ICR mice = assay: Induction of catatonia in mice by i.c. injection of serum; assay type: in vivo; conditions: simultaneous i.c. injection 0.2 mg
Excerpt: It is well known that large doses of opiate-like substances can induce a catatonic state in animals which is inhibited or reversed by treatment with the opiate antagonist naloxone. In analogy with the results in earlier examples, the ability of a peptide (qamma-ODNE) complementary to an opiate peptide, qamma-endorphin, to induce antibodies that have opiate properties was examined.
Gamma-ODNE (Example II) was conjugated to Keyhole Limpet Hemocyanin ([…]) and used with Freund's adjuvant to generate rabbit antibodies in a conventional manner (see Example 1F). Both normal and induced rabbit sera were injected intracerebroventicularly (i.c.) into female ICR mice.

Sequence of HTCA (as listed by the source): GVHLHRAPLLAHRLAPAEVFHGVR
T2 sequence (Q64326 whole entry): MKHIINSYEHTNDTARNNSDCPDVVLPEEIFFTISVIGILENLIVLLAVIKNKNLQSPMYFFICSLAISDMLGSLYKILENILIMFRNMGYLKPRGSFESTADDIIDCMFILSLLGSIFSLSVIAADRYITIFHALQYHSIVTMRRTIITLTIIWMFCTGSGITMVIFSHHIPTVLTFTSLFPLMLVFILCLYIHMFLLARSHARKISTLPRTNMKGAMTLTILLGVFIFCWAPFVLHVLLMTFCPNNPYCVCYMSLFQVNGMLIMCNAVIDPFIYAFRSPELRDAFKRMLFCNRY
T2 sequence (Q9D159 whole entry partner): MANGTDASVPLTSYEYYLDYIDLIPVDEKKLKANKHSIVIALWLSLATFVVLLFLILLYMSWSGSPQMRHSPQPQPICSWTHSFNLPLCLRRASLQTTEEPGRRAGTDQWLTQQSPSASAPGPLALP

## QRDKGRLALLGGHEPAV [gamma-odne, H2 N--gln--arg--asp--lys--gly--arg--leu--ala--leu--leu--gly--gly--his--glu--pro--ala--val--COOH]
Bovine gamma-endorphin
  gamma-endorphin binding to coated wells (in words): significantly bound
[1]; 10^-4 M
  % Inhibition of Specific 125I-beta-endorphin: 75.0 ± 0.6%
[1]; 10^-5 M
  % Inhibition of Specific 125I-beta-endorphin: 36.0 ± 2.1%
[1]; 10^-6 M, 30 min preincubation
  % Inhibition of Specific 125I-beta-endorphin: 24.7 ± 3.9%

## ACTH: Synthetic ACTH, fragment 1-24, from Organon; unlabelled ACTH competitor in binding assays
[2]
  Corticosterone equivalents, Experiment 1: 1.08 µg/mL
  Corticosterone equivalents, Experiment 2: 1.42 µg/mL
[3]
  effect on binding of anti-HTCA to affixed Y-1 cells: blocked binding of the anti-HTCA in a dose dependent manner
HTCA; 50 pg/ml ACTH in FCS, Log10 Dilution -0.5
  % Inhibition of Specific Binding: 73%
HTCA; 50 pg/ml ACTH in FCS, Log10 Dilution -1.0
  % Inhibition of Specific Binding: 40%
HTCA; 50 pg/ml ACTH in FCS, Log10 Dilution -1.5
  % Inhibition of Specific Binding: 44%
HTCA; 50 pg/ml ACTH in FCS, Log10 Dilution -2.0
  % Inhibition of Specific Binding: 9%
HTCA; 50 pg/ml ACTH in FCS, Log10 Dilution -2.5
  % Inhibition of Specific Binding: 1%
HTCA; 50 pg/ml ACTH in FCS, Log10 Dilution -3.0
  % Inhibition of Specific Binding: 0%
HTCA; 50 pg/ml ACTH in FCS, Log10 Dilution -3.5
  % Inhibition of Specific Binding: 0%
HTCA; 50 pg/ml serum sample
  Log10 Dilution at 50% inhibition: -1.1
HTCA; 500 pg/ml ACTH in FCS, Log10 Dilution -0.5
  % Inhibition of Specific Binding: 90%
HTCA; 500 pg/ml ACTH in FCS, Log10 Dilution -1.0
  % Inhibition of Specific Binding: 77%
HTCA; 500 pg/ml ACTH in FCS, Log10 Dilution -1.5
  % Inhibition of Specific Binding: 57%
HTCA; 500 pg/ml ACTH in FCS, Log10 Dilution -2.0
  % Inhibition of Specific Binding: 53%
HTCA; 500 pg/ml ACTH in FCS, Log10 Dilution -2.5
  % Inhibition of Specific Binding: 35%
HTCA; 500 pg/ml ACTH in FCS, Log10 Dilution -3.0
  % Inhibition of Specific Binding: 32%
HTCA; 500 pg/ml ACTH in FCS, Log10 Dilution -3.5
  % Inhibition of Specific Binding: 20%
HTCA; 500 pg/ml serum sample
  Log10 Dilution at 50% inhibition: -2.0

## C=CCN1CC[C@]23c4c5ccc(O)c4O[C@H]2C(=O)CC[C@@]3(O)[C@H]1C5 [naloxone]
Female ICR mice
  effect on serum-induced catatonia: reversed
